Results as given in PMC11054906 (Pharmaceuticals, 2024).

Key:
[1] = parameters: method as in PMID 23940010, PMID 27312794, PMID 29251772, PMID 24964723; conditions: cited from earlier work
[2] = Population PK analysis (NLME, Monolix) of empagliflozin plasma concentrations from two phase 1 crossover studies; assay type: in vivo, healthy Korean subjects
Text: Data from two clinical studies (NCT03849495 and NCT03848637) were used in this study to develop the PK model and conduct population PK analysis. Both of the studies were randomized, open-label, two-period, two-sequence, crossover studies comparing the PK characteristics, safety and tolerability profiles of the two study drugs in healthy Korean subjects. Healthy subjects aged between 19 and 50 years with BMIs of 18–27 kg/m^2 were recruited for both studies. Subjects without any clinically significant medical history, and without any clinically significant findings in physical examinations, vital signs, 12-lead electrocardiograms (ECG), and clinical laboratory test results were eligible for the studies. Subjects who could not abstain from alcohol, smoking, or drug use throughout the study were excluded. To ensure safety, subjects with any allergies to the study medications were also excluded. Adverse drug reactions were assessed throughout the study period, and the monitoring of physical examinations, vital signs, 12-lead ECG, and laboratory tests was also performed.
Demographic data, clinical laboratory data, and time–plasma concentration data were pooled to develop a population PK model.
Blood samples were collected before drug administration (0 h) and 0.33 h, 0.67 h, 1 h, 1.5 h, 2 h, 2.5 h, 3 h, 4 h, 6 h, 8 h, 10 h, 12 h, 24 h, 34 h, and 48 h after study’s drug administration in the first study. In the second study, blood samples were also collected at 3.5 h and 5 h. Thus, a total of 16 and 18 blood samples were collected from each healthy volunteer in the two clinical studies, respectively. […] In the second study, the plasma concentrations of empagliflozin were quantified by using liquid chromatography–mass spectrometry (LC–MS) equipped with API 4000 (SCIEX; multiple reaction monitoring, electrospray ionization, and positive SCIEX mode). All experiments adhered to the standards of good laboratory practice as described previously. The calibration ranges in these two studies were 2–1500 ng/mL and 0.5–150 ng/mL, respectively.
The population PK analysis was conducted using a nonlinear mixed effect (NLME) modeling method with Monolix® Suite 2021R1 (Lixoft, Antony, France). The stochastic approximation expectation maximization (SAEM) algorithm was implemented, and model qualification was performed using a likelihood ratio test, Bayesian information criterion (BIC), goodness-of-fit (GOF) diagnostic plots, and visual predictive checks (VPCs). Various compartment models with lag time, transit compartment, and Weibull absorption were established to construct the base PK model.
After the development of the base model, interindividual variability (IIV), interoccasion variability (IOV), and residual errors were added to the model. Because of the crossover study design, the random variation in the population PK parameters was described by both the IIV and IOV, with all the individual parameters considered to be log-normally distributed. IIV and IOV were sequentially implemented, and the parameters were subsequently removed or fixed at low values when converging to zero. The exponential random effects terms for the IIV and IOV are shown in Formulas (2) and (3), respectively. (2) Pi=θk×e^ηi where Pi represents the parameter value k from individual i and θk describes the population value of parameter k. ηi denotes the difference between Pi and θk. (3) Pi,occ=θk×e^ηi+Kkiq where Pi,occ is the individual parameter value k from individual i at occasion q that differs from the typical individual value by an additional random effect Kkiq. An occasion was characterized as the time period from the start of an infusion until the start of the next administration. ηki and Kkiq were assumed to be symmetrically distributed with a zero mean and a variance of σ^2 and γ^2, respectively. […]

[3] = 1000 bootstrap resampling, interindividual variability
[4] = 1000 bootstrap resampling, interoccasion variability
[5] = final model, oral single dose, both formulations pooled

CL, median of bootstrap (95% CI) ([2]; 1000 bootstrap resampling): 8.21 (7.945–8.465) L/h | Ka, median of bootstrap (95% CI) ([2]; 1000 bootstrap resampling): 0.25 (0.23–0.275) h^−1 | Ktr, median of bootstrap (95% CI) ([2]; 1000 bootstrap resampling): 8.94 (6.766–11.728) h^−1 | Mtt, median of bootstrap (95% CI) ([2]; 1000 bootstrap resampling): 0.64 (0.526–0.725) h | Q, median of bootstrap (95% CI) ([2]; 1000 bootstrap resampling): 4.66 (3.979–5.456) L/h | V1, median of bootstrap (95% CI) ([2]; 1000 bootstrap resampling): 0.64 (0–1.889) L | V2, median of bootstrap (95% CI) ([2]; 1000 bootstrap resampling): 43.93 (41.255–47.171) L | b (residual variability), median of bootstrap (95% CI) ([2]; 1000 bootstrap resampling): 0.16 (0.141–0.175) | βCL_logWT, median of bootstrap (95% CI) ([2]; 1000 bootstrap resampling): 0.64 (0.366–0.926) | βV2_logWT, median of bootstrap (95% CI) ([2]; 1000 bootstrap resampling): 0.54 (0.221–0.851) | ωCL, median of bootstrap (95% CI) [2, 3]: 0.12 (0.101–0.141) | ωKa, median of bootstrap (95% CI) [2, 3]: 0.16 (0.116–0.208) | ωV2, median of bootstrap (95% CI) [2, 3]: 0.13 (0.1–0.172) | γCL, median of bootstrap (95% CI) [2, 4]: 0.04 (0.025–0.06) | γKa, median of bootstrap (95% CI) [2, 4]: 0.04 (0.023–0.062) | γKtr, median of bootstrap (95% CI) [2, 4]: 1.11 (0.858–1.334) | γMtt, median of bootstrap (95% CI) [2, 4]: 0.44 (0.359–0.528) | b, residual variability (proportional error) ([2]; final model): 0.16 | Ktr (transit rate constant), population value ([2]; final model, oral single dose 25 mg or 5 mg (with metformin 1000 mg), both formulations pooled): 9.19 h⁻¹ | CL (clearance), population value [2, 5]: 8.21 L/h | Ka (absorption rate constant), population value [2, 5]: 0.26 h⁻¹ | Mtt (mean transit time for absorption), population value [2, 5]: 0.63 h | V1, population value [2, 5]: 0.6 L | Mtt (mean transit time) ([2]; final two-compartment transit model): 37.8 min | number of transit compartments ([2]; from Formula (1), Mtt and Ktr of the final model): 4.79 | γCL, interoccasion variability ([2]; presented as SD (CV)): 4.3% | γKa, interoccasion variability ([2]; presented as SD (CV)): 0.029 (2.90) % | γKtr, interoccasion variability ([2]; presented as SD (CV)): 1.17 (171.20) % | γMtt, interoccasion variability ([2]; presented as SD (CV)): 0.42 (43.92) % | ωCL, interindividual variability ([2]; presented as SD (CV)): 0.12 (12.04) % | ωV2, interindividual variability ([2]; presented as SD (CV)): 0.13 (13.06) %
Compound: OC[C@H]1O[C@@H](c2ccc(Cl)c(Cc3ccc(O[C@H]4CCOC4)cc3)c2)[C@H](O)[C@@H](O)[C@@H]1O [empagliflozin, Empagliflozin]
estimated Mtt ([1]; three transit compartment model): 30 min | lag time (fixed) of lagged first-order oral absorption ([1]; two-compartment model): 0.5 h | βV2_logWT (effect of log-transformed body weight on V2) ([2]; final model, covariate coefficient): 0.57
